Results from paper PMC3445516 (PLoS ONE, 2012).
Where two headings read alike, the source gives them in different places.

Tests used:
Experiment in all cases: Ambit kinase profiling, competition binding
AURKC = target: T1, AURKC (Homo sapiens, UniProt Q9UQB9)
T1 construct: purchased Ambit Biosciences (KINOMEscan)
T1 sequence (Q9UQB9 1-309): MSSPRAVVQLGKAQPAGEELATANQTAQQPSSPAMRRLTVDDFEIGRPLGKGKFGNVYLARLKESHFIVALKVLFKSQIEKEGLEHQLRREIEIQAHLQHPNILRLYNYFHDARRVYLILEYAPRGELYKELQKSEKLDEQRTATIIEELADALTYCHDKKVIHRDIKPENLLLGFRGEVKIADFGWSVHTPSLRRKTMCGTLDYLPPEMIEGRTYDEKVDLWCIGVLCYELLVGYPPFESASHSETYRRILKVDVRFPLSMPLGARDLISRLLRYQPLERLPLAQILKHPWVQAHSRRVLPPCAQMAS
Description: (§1) Also included in the kinase profile are four isoforms of PKC (δ, ε, η, θ) and eight isoforms of CAMKs (CAMKIα, δ, γ; CAMKIIα, β, δ, γ; CAMK4).
(§2) The global kinase profiling experiment was performed by Ambit Biosciences.

RIPK4 = target: T2, RIPK4 (Homo sapiens, UniProt P57078)
T2 construct: purchased Ambit Biosciences (KINOMEscan)
T2 sequence (P57078 1-832): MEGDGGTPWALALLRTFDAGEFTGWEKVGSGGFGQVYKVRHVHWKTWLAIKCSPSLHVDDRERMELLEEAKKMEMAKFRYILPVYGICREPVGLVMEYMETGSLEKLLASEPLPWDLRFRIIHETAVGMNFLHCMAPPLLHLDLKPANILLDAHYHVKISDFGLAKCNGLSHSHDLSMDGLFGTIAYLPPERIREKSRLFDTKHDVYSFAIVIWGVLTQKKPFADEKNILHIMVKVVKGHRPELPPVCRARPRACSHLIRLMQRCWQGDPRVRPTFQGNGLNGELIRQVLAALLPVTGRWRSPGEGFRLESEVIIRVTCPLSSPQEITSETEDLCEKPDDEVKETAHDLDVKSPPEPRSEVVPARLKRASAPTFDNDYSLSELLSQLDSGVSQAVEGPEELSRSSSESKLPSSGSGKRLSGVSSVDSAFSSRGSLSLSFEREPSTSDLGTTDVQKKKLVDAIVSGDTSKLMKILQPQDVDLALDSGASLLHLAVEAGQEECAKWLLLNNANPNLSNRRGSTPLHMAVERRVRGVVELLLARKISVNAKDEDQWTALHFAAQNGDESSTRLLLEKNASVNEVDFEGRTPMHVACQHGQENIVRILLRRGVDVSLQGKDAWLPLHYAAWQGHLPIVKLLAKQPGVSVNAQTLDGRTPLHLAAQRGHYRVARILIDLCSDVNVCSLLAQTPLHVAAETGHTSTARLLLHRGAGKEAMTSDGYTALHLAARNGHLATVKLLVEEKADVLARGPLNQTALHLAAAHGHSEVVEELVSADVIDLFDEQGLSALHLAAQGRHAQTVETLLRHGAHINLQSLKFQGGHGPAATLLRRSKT
Description: as §1, §2

ERK8 = target: T3, ERK8 (Homo sapiens, UniProt Q8TD08)
T3 construct: purchased Ambit Biosciences (KINOMEscan)
T3 sequence (Q8TD08 1-544): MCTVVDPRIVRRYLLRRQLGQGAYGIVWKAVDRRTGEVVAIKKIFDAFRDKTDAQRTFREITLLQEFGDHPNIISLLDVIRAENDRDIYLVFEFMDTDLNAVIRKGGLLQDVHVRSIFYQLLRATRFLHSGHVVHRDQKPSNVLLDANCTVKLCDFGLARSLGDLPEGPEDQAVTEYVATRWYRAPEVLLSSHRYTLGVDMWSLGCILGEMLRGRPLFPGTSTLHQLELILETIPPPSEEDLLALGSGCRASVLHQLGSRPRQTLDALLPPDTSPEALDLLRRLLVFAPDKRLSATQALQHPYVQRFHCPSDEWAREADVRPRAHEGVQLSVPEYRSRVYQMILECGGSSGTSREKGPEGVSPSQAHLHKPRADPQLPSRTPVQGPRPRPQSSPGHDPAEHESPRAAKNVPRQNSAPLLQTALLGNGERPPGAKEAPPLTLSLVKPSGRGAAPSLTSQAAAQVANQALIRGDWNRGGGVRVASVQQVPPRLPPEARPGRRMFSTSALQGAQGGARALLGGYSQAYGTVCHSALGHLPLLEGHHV
Description: as §1, §2

DYRK1B = target: T4, DYRK1B (Homo sapiens, UniProt Q9Y463)
T4 construct: purchased Ambit Biosciences (KINOMEscan)
Description: as §1, §2

EGFR(L858R) = target: T5, EGFR(L858R) (Homo sapiens, UniProt P00533, L858R); conditions: for % Competition: 10 µM
T5 construct: purchased Ambit Biosciences (KINOMEscan)
Description: as §1, §2

PRKD3 = target: T6, PRKD3 (Homo sapiens, UniProt O94806)
T6 construct: purchased Ambit Biosciences (KINOMEscan)
T6 sequence (O94806 1-890): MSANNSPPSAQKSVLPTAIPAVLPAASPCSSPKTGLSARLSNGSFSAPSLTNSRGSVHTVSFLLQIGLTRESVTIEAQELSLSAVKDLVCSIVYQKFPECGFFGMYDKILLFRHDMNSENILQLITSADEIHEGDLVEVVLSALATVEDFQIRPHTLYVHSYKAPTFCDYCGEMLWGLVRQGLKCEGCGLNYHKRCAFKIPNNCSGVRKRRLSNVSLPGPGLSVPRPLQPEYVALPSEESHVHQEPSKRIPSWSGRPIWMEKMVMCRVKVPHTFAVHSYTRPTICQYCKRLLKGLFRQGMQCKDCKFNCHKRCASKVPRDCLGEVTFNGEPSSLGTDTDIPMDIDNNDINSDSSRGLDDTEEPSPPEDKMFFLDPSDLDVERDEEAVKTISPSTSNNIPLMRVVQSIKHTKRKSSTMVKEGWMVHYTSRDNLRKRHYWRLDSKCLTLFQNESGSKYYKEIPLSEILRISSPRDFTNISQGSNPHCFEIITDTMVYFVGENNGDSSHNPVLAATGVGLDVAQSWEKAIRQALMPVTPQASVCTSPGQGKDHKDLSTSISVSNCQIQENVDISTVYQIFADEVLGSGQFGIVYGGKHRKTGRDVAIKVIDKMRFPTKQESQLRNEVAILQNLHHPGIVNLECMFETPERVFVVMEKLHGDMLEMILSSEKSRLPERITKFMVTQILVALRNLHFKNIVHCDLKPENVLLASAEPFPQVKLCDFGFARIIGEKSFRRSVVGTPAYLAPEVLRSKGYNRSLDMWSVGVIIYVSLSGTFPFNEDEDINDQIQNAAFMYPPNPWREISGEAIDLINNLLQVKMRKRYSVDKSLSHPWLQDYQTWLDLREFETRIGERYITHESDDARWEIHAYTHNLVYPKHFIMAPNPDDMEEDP
Description: as §1, §2

RET = target: T7, RET (Homo sapiens, UniProt P07949)
T7 construct: purchased Ambit Biosciences (KINOMEscan)
Description: as §1, §2

T4 sequence (Q9Y463 whole entry): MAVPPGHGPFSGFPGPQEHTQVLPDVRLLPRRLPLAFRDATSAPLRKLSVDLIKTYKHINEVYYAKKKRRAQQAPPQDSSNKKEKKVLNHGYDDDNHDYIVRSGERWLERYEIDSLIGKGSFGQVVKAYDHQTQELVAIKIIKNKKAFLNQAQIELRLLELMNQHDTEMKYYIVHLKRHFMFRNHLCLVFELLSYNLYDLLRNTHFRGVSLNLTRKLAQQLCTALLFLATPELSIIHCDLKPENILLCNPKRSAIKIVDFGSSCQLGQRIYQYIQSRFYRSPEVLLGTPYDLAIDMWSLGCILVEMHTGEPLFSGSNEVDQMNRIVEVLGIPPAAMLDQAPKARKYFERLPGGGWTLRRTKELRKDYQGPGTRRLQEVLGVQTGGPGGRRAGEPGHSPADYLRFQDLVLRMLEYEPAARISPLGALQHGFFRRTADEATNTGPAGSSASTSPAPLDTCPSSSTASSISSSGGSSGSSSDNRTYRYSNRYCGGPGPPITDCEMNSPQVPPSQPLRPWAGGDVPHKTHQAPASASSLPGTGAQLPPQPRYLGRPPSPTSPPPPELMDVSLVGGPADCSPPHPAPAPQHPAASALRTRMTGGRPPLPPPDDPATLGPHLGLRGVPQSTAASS
T7 sequence (P07949 29-1114): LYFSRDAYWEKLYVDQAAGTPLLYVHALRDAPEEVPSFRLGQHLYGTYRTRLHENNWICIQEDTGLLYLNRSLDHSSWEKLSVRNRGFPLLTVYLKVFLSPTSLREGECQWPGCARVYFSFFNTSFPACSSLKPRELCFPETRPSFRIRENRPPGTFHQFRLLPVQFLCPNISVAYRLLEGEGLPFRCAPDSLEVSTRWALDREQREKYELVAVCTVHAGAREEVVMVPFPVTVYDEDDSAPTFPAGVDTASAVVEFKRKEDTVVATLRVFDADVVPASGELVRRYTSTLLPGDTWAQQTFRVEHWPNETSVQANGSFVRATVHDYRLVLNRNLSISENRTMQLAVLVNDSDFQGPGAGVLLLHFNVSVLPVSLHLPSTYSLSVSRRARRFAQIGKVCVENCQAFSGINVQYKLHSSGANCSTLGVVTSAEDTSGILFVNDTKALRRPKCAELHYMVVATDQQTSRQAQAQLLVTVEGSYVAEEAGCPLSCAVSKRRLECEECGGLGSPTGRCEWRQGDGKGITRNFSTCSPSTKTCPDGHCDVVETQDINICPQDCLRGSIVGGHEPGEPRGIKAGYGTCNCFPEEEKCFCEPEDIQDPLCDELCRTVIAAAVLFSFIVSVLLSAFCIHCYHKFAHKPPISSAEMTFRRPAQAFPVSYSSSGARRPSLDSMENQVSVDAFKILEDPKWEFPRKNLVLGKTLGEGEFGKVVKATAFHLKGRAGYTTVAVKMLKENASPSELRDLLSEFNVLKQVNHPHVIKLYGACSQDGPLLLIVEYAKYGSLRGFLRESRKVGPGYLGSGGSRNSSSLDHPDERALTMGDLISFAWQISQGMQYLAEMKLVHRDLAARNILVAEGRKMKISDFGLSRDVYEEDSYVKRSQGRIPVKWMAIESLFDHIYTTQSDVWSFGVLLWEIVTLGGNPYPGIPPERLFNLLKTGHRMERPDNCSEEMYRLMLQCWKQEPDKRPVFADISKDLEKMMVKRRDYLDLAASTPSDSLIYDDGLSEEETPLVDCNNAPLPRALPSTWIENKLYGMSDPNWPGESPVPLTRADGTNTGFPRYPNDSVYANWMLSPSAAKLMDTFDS

inhibition at 10 µM (AURKC; AURKC, 10 µM, read-out: % Competition) [%] | inhibition at 10 µM (RIPK4; RIPK4, 10 µM, read-out: % Competition) [%] | inhibition at 10 µM (DYRK1B; DYRK1B, 10 µM, read-out: % Competition) [%] | inhibition at 10 µM (PRKD3; PRKD3 (PKD3), 10 µM, read-out: % Competition) [%] | inhibition at 10 µM (RET; RET, 10 µM, read-out: % Competition) [%] | inhibition at 10 µM (AURKC; AURKC, compound concentration 10 uM, read-out: Percent Competition) [%] | inhibition at 10 µM (RIPK4; RIPK4, compound concentration 10 uM, read-out: Percent Competition) [%] | inhibition at 10 µM (DYRK1B; DYRK1B, compound concentration 10 uM, read-out: Percent Competition) [%] | Percent Competition (EGFR(L858R); compound concentration 10 uM) [%] | inhibition at 10 µM (PRKD3; PRKD3, compound concentration 10 uM, read-out: Percent Competition) [%] | inhibition at 10 µM (RET; RET, compound concentration 10 uM, read-out: Percent Competition) [%] | SMILES | inhibition at 10 µM (ERK8; ERK8, 10 µM, read-out: % Competition) [%] | % Competition (EGFR(L858R)) [%] | inhibition at 10 µM (AURKC; read-out: % Competition) [%] | inhibition at 10 µM (RIPK4; read-out: % Competition) [%] | inhibition at 10 µM (ERK8; read-out: % Competition) [%] | inhibition at 10 µM (DYRK1B; read-out: % Competition) [%] | inhibition at 10 µM (PRKD3; read-out: % Competition) [%] | inhibition at 10 µM (RET; read-out: % Competition) [%] | inhibition at 10 µM (ERK8; ERK8, compound concentration 10 uM, read-out: Percent Competition) [%]
86 | 76 | 79 | 98 | 68 |  |  |  |  |  |  | Fc1ccc(-c2c(-c3ccncc3)[nH]c3nccnc23)cc1 [Compound 122] | 98 | 98 |  |  |  |  |  |  | 
 |  |  |  |  |  |  |  |  |  |  | CC(O)CNc1cc(-c2[nH]c3cccnc3c2-c2ccc(F)cc2)ccn1 (stereo not drawn) [Compound 140] |  | 84 | < 50 | < 50 | < 50 | < 50 | 96 | < 50 | 
 |  |  |  |  | 86 | 76 | 79 | 98 | 98 | 68 | Fc1ccc(-c2c(-c3ccncc3)[nH]c3nccnc23)cc1 [RO1155697-000-005] |  |  |  |  |  |  |  |  | 98
